Columns and labels:
Assay type in all cases: in vivo, human
[1] = Taste threshold concentration in model broth, three-alternative test by sensory panel; details: thick-sour sensation and white-meaty oral impression, value in brackets
Experimental: The sensory tests were performed in a sensory panel room at 20-25° C. To avoid a retro-nasal aroma or taste impression, nose clips were used. The sensory panel consisted of 8 to 14 trained persons. The panel was trained to evaluate the taste of aqueous solutions (1 mL each) of the following standard taste compounds by using a triangle test: saccharose (50 mmol/L) and L-alanine (15 mmol/L), respectively, for sweet taste; lactic acid (20 mmol/L) for sour taste; NaCl (12 mmol/L) for salty taste; caffeine (1 mmol/L) and quinine hydrochloride (0.05 mmol/L), respectively, for bitter taste; sodium glutamate (8 mmol/L, pH 5.7) for umami taste; and tannin (0.05%) for astringency. The “white meaty” oral sensations was assessed in a model broth solution prepared from monosodium glutamate monohydrate (1.9 g/L), yeast extract (2.1 g/L), maltodextrin (6.375 g/L) and sodium chloride (2.9 g/L) in bottled water (pH 5.9).
The taste threshold concentration of β-alanyl-L-histidine was determined in the model broth using a three-alternative test with two blanks and one sample in ascending concentrations of β-alanyl-L-histidine.
This taste threshold value is considerably lower than the 22′700 μmol/L (5.3 mg/g) threshold level determined for the corresponding β-alanyl-L-histidine under the same experimental model system (see Example 5). […]

[2] = Sensory evaluation of chicken soups with and without the compound; details: compound added at 2 g/L; chicken base powder 6 g and 1 g monosodium glutamate in 500 mL hot water; 12 panelists
Experimental: Chicken soups were prepared by dissolving 6 g chicken base powder (detailed recipe shown in Table 3) and 1 g monosodium glutamate in 500 mL hot water. 1-Deoxy-D-fructosyl-N-β-alanyl-L-histidine or alternatively 1-deoxy-D-fructosyl-N-β-alanyl-N-methyl-L-histidine was added at 2 g/L.
The sensory evaluation was carried out by 12 panelists, previously screened for their sensory abilities. The panelists were asked to taste a set of 2 chicken soups, one containing no 1-deoxy-D-fructosyl-N-β-alanyl-L-histidine and one containing 1-deoxy-D-fructosyl-N-β-alanyl-L-histidine (2 g/L). If sensory differences were observed, the panelists were asked to describe them.
The same sensory evaluation was carried out with the chicken soup samples with and without containing 1-deoxy-D-fructosyl-N-β-alanyl-N-methyl-L-histidine at 2 g/L broth.

[3] = Sensory evaluation of tomato soups with and without the compound; details: compound added at 2 g/L; 6 g tomato base powder in 500 mL hot water
Experimental: 1-Deoxy-D-fructosyl-N-β-alanyl-L-histidine or alternatively 1-deoxy-D-fructosyl-N-β-alanyl-N-methyl-L-histidine was added at 2 g/L to the soups.

Structure (SMILES): NCCC(=O)N[C@@H](Cc1c[nH]cn1)C(=O)O [β-alanyl-L-histidine]
- taste threshold concentration [1]: 5.3 mg/g

Structure (SMILES): Cn1cncc1C[C@H](NC(=O)CCNCC(=O)[C@@H](O)[C@H](O)[C@H](O)CO)C(=O)O [1-deoxy-D-fructosyl-N-β-alanyl-N-methyl-L-histidine]
- sensory panel conclusion on flavour of chicken soup [2]: significantly increased the boiled chicken and meaty flavours
- sensory panel conclusion on flavour of tomato soup [3]: increased significantly the savory, spicy notes
